Test results taken from paper PMC11233587, “Design, synthesis, in vitro, and in silico anti-α-glucosidase assays of N-phenylacetamide-1,2,3-triazole-indole-2-carboxamide derivatives as new anti-diabetic agents” (Scientific Reports, 2024).
Entries after “also recorded” stand apart in the source; their conditions may differ. Like-named read-outs stand apart in the source and are kept apart here.

Legend:
yeast α-glucosidase = yeast α-glucosidase (Saccharomyces cerevisiae, UniProt P53341); test: biochemical; format: biochemical
yeast α-glucosidase, sequence (P53341 whole entry): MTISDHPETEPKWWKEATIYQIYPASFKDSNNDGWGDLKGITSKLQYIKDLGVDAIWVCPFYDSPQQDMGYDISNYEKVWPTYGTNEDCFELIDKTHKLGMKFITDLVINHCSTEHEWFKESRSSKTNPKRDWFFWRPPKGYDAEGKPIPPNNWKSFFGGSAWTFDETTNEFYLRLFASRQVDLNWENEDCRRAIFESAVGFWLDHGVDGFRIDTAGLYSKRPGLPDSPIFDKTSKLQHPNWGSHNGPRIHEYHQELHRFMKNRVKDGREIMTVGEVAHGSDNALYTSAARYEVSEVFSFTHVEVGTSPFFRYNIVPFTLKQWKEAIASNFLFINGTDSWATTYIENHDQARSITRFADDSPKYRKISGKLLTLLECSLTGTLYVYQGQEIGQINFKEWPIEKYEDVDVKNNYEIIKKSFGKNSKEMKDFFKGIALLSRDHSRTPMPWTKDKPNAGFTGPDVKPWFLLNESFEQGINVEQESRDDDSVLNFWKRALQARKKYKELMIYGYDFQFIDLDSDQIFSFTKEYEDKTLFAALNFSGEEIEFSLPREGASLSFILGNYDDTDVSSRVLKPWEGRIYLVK

[1] = biological target: T1, α-amylase (pancreatic form) (Homo sapiens, UniProt P04746); test: α-Amylase inhibition assay; format: biochemical; conditions: read-out: IC50 against α-amylase
T1 sequence (P04746 16-511): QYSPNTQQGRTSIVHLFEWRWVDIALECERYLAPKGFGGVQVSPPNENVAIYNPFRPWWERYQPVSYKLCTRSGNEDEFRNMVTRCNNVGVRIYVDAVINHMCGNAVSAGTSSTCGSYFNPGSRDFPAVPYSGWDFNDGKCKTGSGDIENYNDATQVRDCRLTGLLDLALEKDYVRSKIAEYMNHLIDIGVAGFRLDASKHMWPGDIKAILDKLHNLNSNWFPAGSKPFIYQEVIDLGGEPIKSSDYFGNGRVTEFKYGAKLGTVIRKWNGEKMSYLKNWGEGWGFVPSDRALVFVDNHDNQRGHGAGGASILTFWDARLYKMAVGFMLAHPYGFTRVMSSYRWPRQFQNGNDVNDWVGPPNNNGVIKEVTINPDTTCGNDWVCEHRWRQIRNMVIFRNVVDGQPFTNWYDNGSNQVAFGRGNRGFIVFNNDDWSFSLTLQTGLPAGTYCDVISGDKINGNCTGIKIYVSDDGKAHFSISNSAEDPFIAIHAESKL
Procedure: Inhibitory activity of the most poten new α-glucosidase inhibitors 5k, 5j, and 5f was evaluated against α-amylase (pancreatic form)[15].
(Supplementary Information S1).

α-glucosidase [2] = biological target: α-glucosidase (Saccharomyces cerevisiae, UniProt P53341); test: Kinetics of α-glucosidase inhibition (Lineweaver–Burk plot and secondary plot); format: biochemical, yeast
α-glucosidase (Saccharomyces cerevisiae, UniProt P53341), sequence (P53341 whole entry): as the sequence (P53341 whole entry) above
Description: As the result, with increasing concentration of compound 5k, Vmax values remained constant while Km values increased.
In vitro assays (inhibition effects and kinetics) of the new compounds 5a–n performed according to pervious reported work[15] (Supplementary Information S1).

α-glucosidase [3] = biological target: α-glucosidase; parameters: method as in doi:10.1007/s00044-020-02603-7; conditions: template compounds A, read-out: IC50 for Compounds A (Fig. 3); cited from earlier work
[4] = read-out: IC50 against α-glucosidase

Compound | IC50 (yeast α-glucosidase) | melting point | IC50 (yeast α-glucosidase; [4]) | also measured
O=C(Cn1cc(CNC(=O)c2cc3ccccc3[nH]2)nn1)Nc1ccccc1 [Compound 5a, N-((1-(2-oxo-2-(phenylamino)ethyl)-1H-1,2,3-triazol-4-yl)methyl)-1H-indole-2-carboxamide] | 62.9 ± 0.3 µM | 216 to 218 °C | – | –
Cc1cccc(NC(=O)Cn2cc(CNC(=O)c3cc4ccccc4[nH]3)nn2)c1 [Compound 5b, N-((1-(2-oxo-2-(m-tolylamino)ethyl)-1H-1,2,3-triazol-4-yl)methyl)-1H-indole-2-carboxamide] | 63.6 ± 1.1 µM | 224 to 226 °C | – | –
Cc1ccc(NC(=O)Cn2cc(CNC(=O)c3cc4ccccc4[nH]3)nn2)cc1 [Compound 5c, N-((1-(2-oxo-2-(p-tolylamino)ethyl)-1H-1,2,3-triazol-4-yl)methyl)-1H-indole-2-carboxamide] | 42.6 ± 0.9 µM | 231 to 233 °C | – | –
Cc1cccc(NC(=O)Cn2cc(CNC(=O)c3cc4ccccc4[nH]3)nn2)c1C [Compound 5d, N-((1-(2-((2,3-dimethylphenyl)amino)-2-oxoethyl)-1H-1,2,3-triazol-4-yl)methyl)-1H-indole-2-carboxamide] | – | 205 to 207 °C | 66 ± 1.8 µM | –
Cc1cccc(C)c1NC(=O)Cn1cc(CNC(=O)c2cc3ccccc3[nH]2)nn1 [Compound 5e, N-((1-(2-((2,6-dimethylphenyl)amino)-2-oxoethyl)-1H-1,2,3-triazol-4-yl)methyl)-1H-indole-2-carboxamide] | – | 208 to 210 °C | 111 ± 1.6 µM | –
CCc1ccc(NC(=O)Cn2cc(CNC(=O)c3cc4ccccc4[nH]3)nn2)cc1 [Compound 5f, N-((1-(2-((4-ethylphenyl)amino)-2-oxoethyl)-1H-1,2,3-triazol-4-yl)methyl)-1H-indole-2-carboxamide] | – | 203 to 205 °C | 40.2 ± 1.6 µM | IC50 [1]: > 150 µM
COc1ccc(NC(=O)Cn2cc(CNC(=O)c3cc4ccccc4[nH]3)nn2)cc1 [Compound 5g, N-((1-(2-((4-methoxyphenyl)amino)-2-oxoethyl)-1H-1,2,3-triazol-4-yl)methyl)-1H-indole-2-carboxamide] | 83 ± 0.7 µM | 209 to 211 °C | – | –
O=C(Cn1cc(CNC(=O)c2cc3ccccc3[nH]2)nn1)Nc1cccc(Cl)c1 [Compound 5h, N-((1-(2-((3-chlorophenyl)amino)-2-oxoethyl)-1H-1,2,3-triazol-4-yl)methyl)-1H-indole-2-carboxamide] | – | 211 to 213 °C | – | –
O=C(Cn1cc(CNC(=O)c2cc3ccccc3[nH]2)nn1)Nc1ccc(Cl)cc1 [Compound 5i, N-((1-(2-((4-chlorophenyl)amino)-2-oxoethyl)-1H-1,2,3-triazol-4-yl)methyl)-1H-indole-2-carboxamide] | 83 ± 1.6 µM | 225 to 227 °C | – | –
O=C(Cn1cc(CNC(=O)c2cc3ccccc3[nH]2)nn1)Nc1ccc(Cl)cc1Cl [Compound 5j, N-((1-(2-((2,4-dichlorophenyl)amino)-2-oxoethyl)-1H-1,2,3-triazol-4-yl)methyl)-1H-indole-2-carboxamide] | – | 233 to 235 °C | 39.6 ± 1.4 µM | IC50 [1]: > 150 µM
O=C(Cn1cc(CNC(=O)c2cc3ccccc3[nH]2)nn1)Nc1ccc(Br)cc1 [Compound 5k, N-((1-(2-((4-bromophenyl)amino)-2-oxoethyl)-1H-1,2,3-triazol-4-yl)methyl)-1H-indole-2-carboxamide] | 26.8 ± 0.5 µM | 236 to 238 °C | – | improvement in the inhibition effect in comparison to standard inhibitor acarbose (yeast α-glucosidase; ratio of α-glucosidase IC50 values, acarbose vs compound): ~28 fold; type of inhibition (α-glucosidase [2]; Lineweaver–Burk plot, Vmax constant, Km increased): competitive type of inhibition; also recorded: competitive inhibitor; Ki (α-glucosidase [2]; secondary plot of Lineweaver–Burk plots): 26 µM; IC50 [1]: > 150 µM
O=C(Cn1cc(CNC(=O)c2cc3ccccc3[nH]2)nn1)Nc1cccc([N+](=O)[O-])c1 [Compound 5l, N-((1-(2-((3-nitrophenyl)amino)-2-oxoethyl)-1H-1,2,3-triazol-4-yl)methyl)-1H-indole-2-carboxamide] | – | 254 to 256 °C | 110.3 ± 0.6 µM | –
O=C(Cn1cc(CNC(=O)c2cc3ccccc3[nH]2)nn1)Nc1ccc([N+](=O)[O-])cc1 [Compound 5m, N-((1-(2-((4-nitrophenyl)amino)-2-oxoethyl)-1H-1,2,3-triazol-4-yl)methyl)-1H-indole-2-carboxamide] | – | 259 to 261 °C | 78.8 ± 0.3 µM | –
Cc1cc([N+](=O)[O-])ccc1NC(=O)Cn1cc(CNC(=O)c2cc3ccccc3[nH]2)nn1 [Compound 5n, N-((1-(2-((2-methyl-4-nitrophenyl)amino)-2-oxoethyl)-1H-1,2,3-triazol-4-yl)methyl)-1H-indole-2-carboxamide] | – | 229 to 231 °C | 43.5 ± 0.7 µM | –
O=C(Cn1cc(CNC(=O)c2c3ccccc3nc3ccccc23)nn1)Nc1ccc(Br)cc1 [Compounds A, R = 4-Br] | – | – | – | IC50 (α-glucosidase [3]): 269 ± 2.8 µM
O=C(Cn1cc(CNC(=O)c2c3ccccc3nc3ccccc23)nn1)Nc1ccc(Cl)cc1 [Compounds A, R = 4-Cl] | – | – | – | IC50 (α-glucosidase [3]): 309 ± 3.4 µM
Cc1ccc(NC(=O)Cn2cc(CNC(=O)c3c4ccccc4nc4ccccc34)nn2)cc1 [Compounds A, R = 4-Me] | – | – | – | IC50 (α-glucosidase [3]): 519 ± 6.7 µM
O=C(Cn1cc(CNC(=O)c2c3ccccc3nc3ccccc23)nn1)Nc1ccc([N+](=O)[O-])cc1 [Compounds A, R = 4-NO2] | – | – | – | IC50 (α-glucosidase [3]): 152 ± 1.7 µM
O=C(Cn1cc(CNC(=O)c2c3ccccc3nc3ccccc23)nn1)Nc1ccccc1 [Compounds A, R = H] | – | – | – | IC50 (α-glucosidase [3]): 171 ± 2.1 µM
